Calls of active or inactive are those of the source. The rule behind the calls is not given here.
Legend:
MDA-MB-231 [1] = test: Cell cycle arrest in human MDA-MB-231 cells assessed as accumulation at S phase at 0.4 uM after 24 hrs by propidium iodide staining-based flow cytometric analysis (reference value: 32 +/- 4%); type: functional
MDA-MB-231 [2] = test: Cell cycle arrest in human MDA-MB-231 cells assessed as accumulation at sub-G1 phase at 0.8 uM after 24 hrs by propidium iodide staining-based flow cytometric analysis relative to control; type: functional
MDA-MB-231 [3] = test: Induction of apoptosis in human MDA-MB-231 cells assessed as DNA ladder formation at 0.4 to 3.2 uM after 24 hrs; type: functional, cell-based
MDA-MB-231 [4] = test: Downregulation of Bcl-xL protein expression in human MDA-MB-231 cells after 48 hrs by Western blot analysis; type: functional, cell-based
MDA-MB-231 [5] = test: Upregulation of Bax protein expression in human MDA-MB-231 cells after 48 hrs by Western blot analysis; type: functional, cell-based
MDA-MB-231 [6] = test: Cell cycle arrest in human MDA-MB-231 cells assessed as accumulation at G0/G1 phase at 1.6 uM after 48 hrs by propidium iodide staining-based flow cytometric analysis (reference value: 57.8 +/- 0.7%); type: functional
[7] = Cytotoxicity against human Hs578T cells assessed as growth inhibition at 20 uM after 48 hrs by MTT assay relative to control; type: functional; settings: Hs-578T, read-out: GI
MDA-MB-231 [8] = test: Cell cycle arrest in human MDA-MB-231 cells assessed as accumulation at sub-G1 phase at 1.6 uM after 48 hrs by propidium iodide staining-based flow cytometric analysis relative to control; type: functional
MDA-MB-231 [9] = test: Antitumor activity against luciferase-expressing human MDA-MB-231 cells xenografted in nude mouse assessed as tumor growth inhibition at 25 mg/kg, ip administered every other day measured on day 54 relative to vehicle-treated control; type: functional; settings: MDA-MB-231, ip, 1296 h, read-out: TGI
Mus musculus = test: Toxicity in nude mouse xenografted with luciferase-expressing human MDA-MB-231 cells assessed as change in body weight at 10 to 25 mg/kg, ip administered every other day measured weekly up to day 54 relative to vehicle-treated control; type: organism-based; settings: in vivo
MDA-MB-231 [10] = test: Cell cycle arrest in human MDA-MB-231 cells assessed as accumulation at S phase at 0.8 uM after 24 hrs by propidium iodide staining-based flow cytometric analysis (reference value: 32 +/- 4%); type: functional
MDA-MB-231 [11] = test: Downregulation of cyclin A protein expression in human MDA-MB-231 cells at 0.4 to 3.2 uM after 48 hrs by Western blot analysis relative to control; type: functional, cell-based
MDA-MB-231 [12] = test: Cytotoxicity against human MDA-MB-231 cells assessed as growth inhibition after 48 hrs by MTT assay; type: functional, cell-based; settings: MDA-MB-231, 48 h
MDA-MB-231 [13] = test: Cell cycle arrest in human MDA-MB-231 cells assessed as accumulation at G2/M phase at 0.4 uM after 24 hrs by propidium iodide staining-based flow cytometric analysis (reference value: 12 +/- 2%); type: functional
MDA-MB-231 [14] = test: Cell cycle arrest in human MDA-MB-231 cells assessed as accumulation at S phase at 1.6 uM after 48 hrs by propidium iodide staining-based flow cytometric analysis (reference value: 26 +/- 3%); type: functional
MCF7 = test: Cytotoxicity against human MCF7 cells assessed as growth inhibition after 48 hrs by MTT assay; type: functional, cell-based; settings: MCF7, 48 h
MDA-MB-231 [15] = test: Antimetastatic activity against luciferase-expressing human MDA-MB-231 cells xenografted in nude mouse assessed as suppression of lung metastasis by measuring reduction of lung weight at 25 mg/kg, ip administered every other day measured on day 54 relative to vehicle-treated control; type: functional; design: scale not given: the % may be the effect or the level left
MDA-MB-231 [16] = test: Antitumor activity against luciferase-expressing human MDA-MB-231 cells xenografted in nude mouse assessed as tumor growth inhibition at 10 mg/kg, ip administered every other day measured on day 54 relative to vehicle-treated control; type: functional; settings: MDA-MB-231, ip, 1296 h, read-out: TGI
MDA-MB-231 [17] = test: Antitumor activity against luciferase-expressing human MDA-MB-231 cells xenografted in ip dosed nude mouse assessed as tumor growth inhibition administered every other day measured on day 54; type: functional, organism-based
MDA-MB-231 [18] = test: Cell cycle arrest in human MDA-MB-231 cells assessed as accumulation at sub-G1 phase at 0.4 uM after 48 hrs by propidium iodide staining-based flow cytometric analysis relative to control; type: functional
MDA-MB-231 [19] = test: Cell cycle arrest in human MDA-MB-231 cells assessed as accumulation at S phase at 0.8 uM after 48 hrs by propidium iodide staining-based flow cytometric analysis (reference value: 26 +/- 3%); type: functional
MDA-MB-231 [20] = test: Upregulation of cyclin B1 protein expression in human MDA-MB-231 cells at 0.4 to 3.2 uM after 48 hrs by Western blot analysis relative to control; type: functional, cell-based
MDA-MB-231 [21] = test: Induction of DNA damage in human MDA-MB-231 cells after 48 hrs by alkaline comet assay; type: functional, cell-based
[22] = Cytotoxicity against human BT549 cells assessed as growth inhibition after 48 hrs by MTT assay; type: functional, cell-based; settings: BT-549, 48 h
MDA-MB-231 [23] = test: Cell cycle arrest in human MDA-MB-231 cells assessed as accumulation at sub-G1 phase at 0.4 uM after 24 hrs by propidium iodide staining-based flow cytometric analysis relative to control; type: functional
MDA-MB-231 [24] = test: Induction of apoptosis in human MDA-MB-231 cells assessed as DNA ladder formation at 0.2 to 3.2 uM after 48 hrs; type: functional, cell-based
MDA-MB-231 [25] = test: Cell cycle arrest in human MDA-MB-231 cells assessed as accumulation at G2/M phase at 0.8 uM after 24 hrs by propidium iodide staining-based flow cytometric analysis (reference value: 12 +/- 2%); type: functional
MDA-MB-231 [26] = test: Cell cycle arrest in human MDA-MB-231 cells assessed as accumulation at G2/M phase at 1.6 uM after 48 hrs by propidium iodide staining-based flow cytometric analysis (reference value: 16 +/- 3%); type: functional
[27] = Cytotoxicity against human Hs578T cells assessed as growth inhibition after 48 hrs by MTT assay; type: functional, cell-based; settings: Hs-578T
MDA-MB-231 [28] = test: Cell cycle arrest in human MDA-MB-231 cells assessed as accumulation at G2/M phase at 0.4 uM after 48 hrs by propidium iodide staining-based flow cytometric analysis (reference value: 16 +/- 3%); type: functional
MDA-MB-231 [29] = test: Cell cycle arrest in human MDA-MB-231 cells assessed as accumulation at sub-G1 phase at 0.8 uM after 48 hrs by propidium iodide staining-based flow cytometric analysis relative to control; type: functional
[30] = Ratio of compound IC50 to SK228 IC50 for human M10 cells; type: ADME, cell-based; settings: read-out: Ratio IC50
MDA-MB-231 [31] = test: Cell cycle arrest in human MDA-MB-231 cells assessed as accumulation at G2/M phase after 48 hrs by propidium iodide staining-based flow cytometric analysis; type: functional
MDA-MB-231 [32] = test: Upregulation of phosphorylated chk2 protein expression in human MDA-MB-231 cells after 48 hrs by Western blot analysis; type: functional, cell-based
MDA-MB-231 [33] = test: Antimetastatic activity against luciferase-expressing human MDA-MB-231 cells xenografted in ip dosed nude mouse assessed as reduction of lung metastasis administered every other day measured on day 54; type: functional, organism-based
MDA-MB-231 [34] = test: Cell cycle arrest in human MDA-MB-231 cells assessed as accumulation at G2/M phase at 0.8 uM after 48 hrs by propidium iodide staining-based flow cytometric analysis (reference value: 16 +/- 3%); type: functional

Q: Which results are given for `Oc1ccc2[nH]cc(C(c3ccc(C(c4c[nH]c5ccc(O)cc45)c4c[nH]c5ccc(O)cc45)nc3)c3c[nH]c4ccc(O)cc34)c2c1`?
A: Activity (MDA-MB-231 [1]): 33%; Activity (MDA-MB-231 [2]): 1.5%; Activity (MDA-MB-231 [3]): inactive; Activity (MDA-MB-231 [4]): Dose-dependent effect; Activity (MDA-MB-231 [5]): Dose-dependent effect; Activity (MDA-MB-231 [6]): 45%; inhibition of growth at 20 µM [7]: 25%; Activity (MDA-MB-231 [8]): 23%; inhibition in vivo at 25 mg/kg (MDA-MB-231 [9]): 70%; Activity (Mus musculus): Non-toxic; Activity (MDA-MB-231 [10]): 31%; Activity (MDA-MB-231 [11]): Active; IC50 (MDA-MB-231 [12]): 0.8 µM; Activity (MDA-MB-231 [13]): 13.2%; Activity (MDA-MB-231 [14]): 32%; IC50 (MCF7): 14 µM; Activity (MDA-MB-231 [15]): 22%; inhibition in vivo at 10 mg/kg (MDA-MB-231 [16]): 58%; TGI (MDA-MB-231 [17]): Dose-dependent effect; Activity (MDA-MB-231 [18]): 1.3%; Activity (MDA-MB-231 [19]): 29%; Activity (MDA-MB-231 [20]): Active; Activity (MDA-MB-231 [21]): Dose-dependent effect; IC50 [22]: 4 µM; Activity (MDA-MB-231 [23]): 0.1%; Activity (MDA-MB-231 [24]): Active; Activity (MDA-MB-231 [25]): 14.7%; Activity (MDA-MB-231 [26]): 24%; IC50 [27]: > 20 µM; Activity (MDA-MB-231 [28]): 18%; Activity (MDA-MB-231 [29]): 12%; selectivity ratio [30]: 4; Activity (MDA-MB-231 [31]): Dose-dependent effect; Activity (MDA-MB-231 [32]): Dose-dependent effect; Activity (MDA-MB-231 [33]): Dose-dependent effect; Activity (MDA-MB-231 [34]): 22%
